Measurements reported in patent US20240158348A1, “HERBICIDAL CYCLIC AMIDES N-SUBSTITUTED WITH A HALOALKYLSULFONYLANILIDE GROUP” (FMC Corporation, priority 2021, published 2024).

Experiments:
Type in all cases: in vivo
[1] = test system: goosegrass (Eleusine indica); assay: Test C preemergence, goosegrass; details: 0 is no effect, 100 is complete control
Procedure, shortened: (§1)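 Injury is given as a visual 0–100 rating, where 100 is complete control, made against untreated plants after 10 or 12 greenhouse days. Galium received a postemergence spray at the one- to two-leaf stage (2–10 cm tall). Corn, ragweed and goosegrass seeds in loam-sand blend received a directed preemergence soil spray; test chemicals were formulated in a surfactant-containing non-phytotoxic solvent.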

[2] = test system: blackgrass (Alopecurus myosuroides); assay: Test C postemergence, blackgrass; details: 125 g ai/ha Postemergence; 0 is no effect, 100 is complete control
[3] = test system: horseweed (Erigeron canadensis); assay: Test C postemergence, horseweed
Procedure, shortened: (§2)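 Ratings run from 0, meaning no effect, up to 100, meaning complete control, judged by eye against untreated plants. Treatment was a directed soil spray before emergence or a postemergence spray on 2–10 cm seedlings, with evaluation 10 or 12 days later.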

[4] = test system: blackgrass (Alopecurus myosuroides); assay: Test C postemergence, blackgrass; details: 31 g ai/ha Postemergence; visual injury, 0 to 100 scale (0 no effect, 100 complete control)
Procedure, shortened: as §2

kochia (Bassia scoparia) [5] = assay: Test C postemergence, kochia
Procedure, shortened: as §2

[6] = test system: galium (catchweed bedstraw, Galium aparine); assay: Test C postemergence, galium
[7] = test system: pigweed, palmer (palmer amaranth, Amaranthus palmeri); assay: Test C preemergence, palmer amaranth; details: 0 is no effect, 100 is complete control
Procedure, shortened: as §2

corn (Zea mays) [8] = assay: Test C postemergence, corn
[9] = test system: wheat (Triticum aestivum); assay: Test C preemergence, wheat; details: 0 is no effect, 100 is complete control
kochia (Bassia scoparia) [10] = assay: Test C preemergence, kochia; details: 0 is no effect, 100 is complete control
Procedure, shortened: as §2

[11] = test system: barnyardgrass (Echinochloa crusgalli); assay: Test D flooded paddy test, barnyardgrass; parameters: key: 0 = no effect, 100 = complete control; details: 250 g ai/ha, Flood; applied to paddy water at 2-leaf stage; visual rating after 13 days; scale 0 (no effect) to 100 (complete control)
Procedure, shortened: (§3)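 Pots holding 2-leaf-stage plants were flooded 3 cm deep and dosed via the water, which stayed at that level. After 13 greenhouse days, injury was scored visually against untreated controls, 0 (none) to 100 (complete control); a dash marks no test result.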

soybean (Glycine max) [12] = assay: Test C preemergence, soybean; details: 0 is no effect, 100 is complete control
Procedure, shortened: as §2

[13] = test system: ryegrass, Italian (Italian ryegrass, Lolium multiflorum); assay: Test C preemergence, Italian ryegrass; details: 0 is no effect, 100 is complete control
Procedure, shortened: as §2

[14] = test system: ragweed (common ragweed, Ambrosia artemisiifolia); assay: Test C preemergence, ragweed; details: 0 is no effect, 100 is complete control
Procedure, shortened: as §1

soybean (Glycine max) [15] = assay: Test C postemergence, soybean
rice (Oryza sativa) = assay: Test D flooded paddy test, rice; parameters: key: 0 = no effect, 100 = complete control; details: 250 g ai/ha, Flood; applied to paddy water at 2-leaf stage; visual rating after 13 days; scale 0 (no effect) to 100 (complete control)
Procedure, shortened: as §3

[16] = test system: goosegrass (Eleusine indica); assay: Test C postemergence, goosegrass
Procedure, shortened: as §2

corn (Zea mays) [17] = assay: Test C preemergence, corn; details: 0 is no effect, 100 is complete control
Procedure, shortened: as §1

[18] = test system: oat, wild (wild oat, Avena fatua); assay: Test C postemergence, wild oat
[19] = test system: ragweed (common ragweed, Ambrosia artemisiifolia); assay: Test C postemergence, ragweed
Procedure, shortened: as §2

[20] = test system: blackgrass (Alopecurus myosuroides); assay: Test C preemergence, blackgrass; details: 0 is no effect, 100 is complete control
From the text: Seeds of plant species selected from blackgrass (Alopecurus myosuroides), corn (Zea mays), foxtail, giant (giant foxtail, Setaria faberi), goosegrass (Eleusine indica), kochia (Bassia scoparia), oat, wild (wild oat, Avena fatua), pigweed, palmer (palmer amaranth, Amaranthus palmeri), ragweed (common ragweed, Ambrosia artemisiifolia), ryegrass, Italian (Italian ryegrass, Lolium multiflorum), soybean (Glycine max) and wheat (Triticum aestivum) were planted into a blend of loam soil and sand and treated preemergence with a directed soil spray using test chemicals formulated in a non-phytotoxic solvent mixture which included a surfactant.
At the same time, plants selected from these crop and weed species and also galium (catchweed bedstraw, Galium aparine) and horseweed (Erigeron canadensis) were planted in pots containing the same blend of loam soil and sand and treated with postemergence applications of test chemicals formulated in the same manner. Plants ranged in height from 2 to 10 cm and were in the one- to two-leaf stage for the postemergence treatment. Treated plants and untreated controls were maintained in a greenhouse for 10 or 12 days, after which time all treated plants were compared to untreated controls and visually evaluated for injury. Plant response ratings, summarized in Table A, are based on a 0 to 100 scale where 0 is no effect and 100 is complete control. A dash (-) response means no test result.

[21] = test system: foxtail, giant (giant foxtail, Setaria faberi); assay: Test C preemergence, giant foxtail; details: 0 is no effect, 100 is complete control
Procedure, shortened: as §2

[22] = test system: sedge, umbrella (small-flower umbrella sedge, Cyperus difformis); assay: Test D flooded paddy test, umbrella sedge; parameters: key: 0 = no effect, 100 = complete control; details: 250 g ai/ha, Flood; applied to paddy water at 2-leaf stage; visual rating after 13 days; scale 0 (no effect) to 100 (complete control)
Procedure, shortened: as §3

[23] = test system: ducksalad (Heteranthera limosa); assay: Test D flooded paddy test, ducksalad; parameters: key: 0 = no effect, 100 = complete control; details: 250 g ai/ha, Flood; applied to paddy water at 2-leaf stage; visual rating after 13 days; scale 0 (no effect) to 100 (complete control)
Procedure, shortened: as §3

[24] = test system: pigweed, palmer (palmer amaranth, Amaranthus palmeri); assay: Test C postemergence, palmer amaranth
Procedure, shortened: as §2

[25] = test system: wheat (Triticum aestivum); assay: Test C postemergence, wheat
Procedure, shortened: as §2

[26] = test system: ryegrass, Italian (Italian ryegrass, Lolium multiflorum); assay: Test C postemergence, Italian ryegrass
Procedure, shortened: as §2

[27] = test system: foxtail, giant (giant foxtail, Setaria faberi); assay: Test C postemergence, giant foxtail
[28] = test system: oat, wild (wild oat, Avena fatua); assay: Test C preemergence, wild oat; details: 0 is no effect, 100 is complete control
Procedure, shortened: as §2

[29] = 31 g ai/ha Postemergence, visual injury, 0 to 100 scale (0 no effect, 100 complete control)
[30] = 125 g ai/ha Postemergence, 0 is no effect, 100 is complete control

CCCC(=O)OCN(c1cc(N2CCC(OC3CC3)C2=O)c(C)cc1C)S(=O)(=O)C(F)(F)F (stereo not shown) [Compound 20]
Plant response rating (0 to 100 scale), Goosegrass ([1]; 31 g ai/ha Preemergence): 100 | Plant response rating (0 to 100 scale), Goosegrass ([1]; 125 g ai/ha Preemergence): 100 | Plant response rating (0 to 100 scale), Blackgrass [2]: 90 | Horseweed plant response rating [3, 29]: 60 | Plant response rating (0 to 100 scale), Horseweed [3, 30]: 90 | Blackgrass plant response rating [4]: 90 | Kochia plant response rating (kochia (Bassia scoparia) [5]; [29]): 70 | Plant response rating (0 to 100 scale), Kochia (kochia (Bassia scoparia) [5]; [30]): 80 | Galium plant response rating [6, 29]: 90 | Plant response rating (0 to 100 scale), Galium [6, 30]: 100 | Plant response rating (0 to 100 scale), Pigweed, Palmer ([7]; 31 g ai/ha Preemergence): 90 | Plant response rating (0 to 100 scale), Pigweed, Palmer ([7]; 125 g ai/ha Preemergence): 100 | Corn plant response rating (corn (Zea mays) [8]; [29]): 90 | Plant response rating (0 to 100 scale), Corn (corn (Zea mays) [8]; [30]): 90 | Plant response rating (0 to 100 scale), Wheat ([9]; 31 g ai/ha Preemergence): 70 | Plant response rating (0 to 100 scale), Wheat ([9]; 125 g ai/ha Preemergence): 100 | Plant response rating (0 to 100 scale), Kochia (kochia (Bassia scoparia) [10]; 31 g ai/ha Preemergence): 80 | Plant response rating (0 to 100 scale), Kochia (kochia (Bassia scoparia) [10]; 125 g ai/ha Preemergence): 100 | Plant response rating, Barnyardgrass [11]: 90 | Plant response rating (0 to 100 scale), Soybean (soybean (Glycine max) [12]; 31 g ai/ha Preemergence): 70 | Plant response rating (0 to 100 scale), Soybean (soybean (Glycine max) [12]; 125 g ai/ha Preemergence): 90 | Plant response rating (0 to 100 scale), Ryegrass, Italian ([13]; 31 g ai/ha Preemergence): 100 | Plant response rating (0 to 100 scale), Ryegrass, Italian ([13]; 125 g ai/ha Preemergence): 100 | Plant response rating (0 to 100 scale), Ragweed ([14]; 31 g ai/ha Preemergence): 60 | Plant response rating (0 to 100 scale), Ragweed ([14]; 125 g ai/ha Preemergence): 90 | Soybean plant response rating (soybean (Glycine max) [15]; [29]): 60 | Plant response rating (0 to 100 scale), Soybean (soybean (Glycine max) [15]; [30]): 70 | Plant response rating, Rice (rice (Oryza sativa)): 15 | Goosegrass plant response rating [16, 29]: 90 | Plant response rating (0 to 100 scale), Goosegrass [16, 30]: 90 | Plant response rating (0 to 100 scale), Corn (corn (Zea mays) [17]; 31 g ai/ha Preemergence): 60 | Plant response rating (0 to 100 scale), Corn (corn (Zea mays) [17]; 125 g ai/ha Preemergence): 90 | Oat, Wild plant response rating [18, 29]: 30 | Plant response rating (0 to 100 scale), Oat, Wild [18, 30]: 80 | Ragweed plant response rating [19, 29]: 80 | Plant response rating (0 to 100 scale), Ragweed [19, 30]: 90 | Plant response rating (0 to 100 scale), Blackgrass ([20]; 31 g ai/ha Preemergence): 80 | Plant response rating (0 to 100 scale), Blackgrass ([20]; 125 g ai/ha Preemergence): 100 | Plant response rating (0 to 100 scale), Foxtail, Giant ([21]; 31 g ai/ha Preemergence): 90 | Plant response rating (0 to 100 scale), Foxtail, Giant ([21]; 125 g ai/ha Preemergence): 100 | Plant response rating, Sedge, Umbrella [22]: 98 | Plant response rating, Ducksalad [23]: 90 | Pigweed, Palmer plant response rating [24, 29]: 50 | Plant response rating (0 to 100 scale), Pigweed, Palmer [24, 30]: 80 | Wheat plant response rating [25, 29]: 70 | Plant response rating (0 to 100 scale), Wheat [25, 30]: 70 | Ryegrass, Italian plant response rating [26, 29]: 60 | Plant response rating (0 to 100 scale), Ryegrass, Italian [26, 30]: 100 | Foxtail, Giant plant response rating [27, 29]: 80 | Plant response rating (0 to 100 scale), Foxtail, Giant [27, 30]: 90 | Plant response rating (0 to 100 scale), Oat, Wild ([28]; 31 g ai/ha Preemergence): 60 | Plant response rating (0 to 100 scale), Oat, Wild ([28]; 125 g ai/ha Preemergence): 100
